Laboratory results published in PubChem BioAssay (NCI).
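48-hour exposure; five concentrations; linearly interpolated endpoints. Here, GI50 denotes the concentration required for 50% inhibition of growth. TGI: concentration producing complete growth inhibition.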

Experiments:
Experiment in all cases: growth of human tumour cells (NCI), 48 h
[1] = system: HL-60(TB) leukemia
[2] = system: OVCAR-8 ovarian
[3] = system: HCC-2998 colon
[4] = system: MCF7 breast
[5] = system: TK-10 renal
[6] = system: HCT-116 colon
[7] = system: OVCAR-3 ovarian
[8] = system: NCI-H226 lung
[9] = system: HCT-15 colon
[10] = system: PC-3 prostate
[11] = system: NCI-H460 lung
[12] = system: NCI-H522 lung
[13] = system: NCI/ADR-RES ovarian
[14] = system: SF-268 CNS
[15] = system: HS 578T breast
[16] = system: SNB-75 CNS
[17] = system: SK-MEL-5 melanoma
[18] = system: RPMI-8226 leukemia
[19] = system: DU-145 prostate
[20] = system: BT-549 breast
[21] = system: MDA-MB-231 breast
[22] = system: 786-0 renal
[23] = system: U251 CNS
[24] = system: UO-31 renal
[25] = system: SN12C renal
[26] = system: M14 melanoma
[27] = system: NCI-H23 lung
[28] = system: RXF 393 renal
[29] = system: SK-MEL-2 melanoma
[30] = system: UACC-257 melanoma
[31] = system: MOLT-4 leukemia
[32] = system: ACHN renal
[33] = system: T-47D breast
[34] = system: UACC-62 melanoma
[35] = system: SF-295 CNS
[36] = system: A549 NSCLC
[37] = system: HOP-92 NSCLC
[38] = system: K-562 leukemia
[39] = system: MDA-MB-435
[40] = system: CCRF-CEM leukemia
[41] = system: OVCAR-5 ovarian
[42] = system: HOP-62 NSCLC
[43] = system: IGROV1 ovarian
[44] = system: COLO 205 colon
[45] = system: SW-620 colon
[46] = system: MALME-3M melanoma
[47] = system: SK-MEL-28 melanoma
[48] = system: KM12 colon
[49] = system: SNB-19 CNS
[50] = system: OVCAR-4 ovarian
[51] = system: CAKI-1 renal
[52] = system: HT29 colon
[53] = system: A498 renal
[54] = system: EKVX NSCLC
[55] = system: SK-OV-3 ovarian
[56] = system: SR leukemia
[57] = system: LOX IMVI melanoma

Nc1nc2c(c3ncccc13)C(c1cccc(Br)c1)Cc1ncccc1-2 (centres undefined)
GI50 [1]: 0.291 µM
TGI [1]: 7.86 µM
GI50 [2]: 5.24 µM
TGI [2]: 58 µM
GI50 [3]: 2.83 µM
TGI [3]: 13.7 µM
GI50 [4]: 0.37 µM
TGI [4]: 18.1 µM
GI50 [5]: 7.94 µM
TGI [5]: 56.2 µM
GI50 [6]: 0.442 µM
TGI [6]: 11.4 µM
GI50 [7]: 0.28 µM
TGI [7]: 0.858 µM
GI50 [8]: 18.8 µM
TGI [8]: 67.4 µM
GI50 [9]: 0.504 µM
TGI [9]: 15.1 µM
GI50 [10]: 0.791 µM
TGI [10]: 18.5 µM
GI50 [11]: 0.492 µM
TGI [11]: 11 µM
GI50 [12]: 0.503 µM
TGI [12]: 11.6 µM
GI50 [13]: 0.408 µM
TGI [13]: 15.1 µM
GI50 [14]: 0.808 µM
TGI [14]: 20.1 µM
GI50 [15]: 2.9 µM
TGI [15]: 23.5 µM
GI50 [16]: 0.3 µM
TGI [16]: 13.4 µM
GI50 [17]: 0.576 µM
TGI [17]: 14.3 µM
GI50 [18]: 5.43 µM
TGI [18]: 48.7 µM
GI50 [19]: 1.13 µM
TGI [19]: 13.7 µM
GI50 [20]: 0.681 µM
TGI [20]: 6.16 µM
GI50 [21]: 1.65 µM
TGI [21]: 18 µM
GI50 [22]: 1.36 µM
TGI [22]: 12 µM
GI50 [23]: 0.625 µM
TGI [23]: 12.7 µM
GI50 [24]: 2.6 µM
TGI [24]: 24.2 µM
GI50 [25]: 3.51 µM
TGI [25]: 33.8 µM
GI50 [26]: 0.509 µM
TGI [26]: 12.6 µM
GI50 [27]: 4.52 µM
TGI [27]: 33 µM
GI50 [28]: 0.765 µM
TGI [28]: 4.06 µM
GI50 [29]: 0.871 µM
TGI [29]: 29.6 µM
GI50 [30]: 18.2 µM
TGI [30]: 54.7 µM
GI50 [31]: 0.705 µM
TGI [31]: 31.8 µM
GI50 [32]: 1.84 µM
TGI [32]: 34.8 µM
GI50 [33]: 0.524 µM
TGI [33]: 38.7 µM
GI50 [34]: 0.436 µM
TGI [34]: 17.4 µM
GI50 [35]: 0.828 µM
TGI [35]: 12.4 µM
GI50 [36]: 1.88 µM
TGI [36]: 39.2 µM
GI50 [37]: 0.95 µM
TGI [37]: 15.5 µM
GI50 [38]: 0.539 µM
TGI [38]: > 100 µM
GI50 [39]: 0.256 µM
TGI [39]: 0.761 µM
GI50 [40]: 0.726 µM
TGI [40]: 38.6 µM
GI50 [41]: 7.84 µM
TGI [41]: 31.1 µM
GI50 [42]: 0.88 µM
TGI [42]: 21.5 µM
GI50 [43]: 2.64 µM
TGI [43]: 34.3 µM
GI50 [44]: 0.665 µM
TGI [44]: 3.81 µM
GI50 [45]: 0.479 µM
TGI [45]: 21.8 µM
GI50 [46]: 11.5 µM
TGI [46]: 31.4 µM
GI50 [47]: 2.74 µM
TGI [47]: 22.6 µM
GI50 [48]: 0.433 µM
TGI [48]: 13.1 µM
GI50 [49]: 11.5 µM
TGI [49]: 25 µM
GI50 [50]: 7.13 µM
TGI [50]: 41 µM
GI50 [51]: 0.749 µM
TGI [51]: 50.4 µM
GI50 [52]: 0.422 µM
TGI [52]: 11.4 µM
GI50 [53]: 0.304 µM
TGI [53]: 1.6 µM
GI50 [54]: 3.07 µM
TGI [54]: 80.8 µM
GI50 [55]: 0.74 µM
TGI [55]: 17.4 µM
GI50 [56]: 0.377 µM
TGI [56]: 32.7 µM
GI50 [57]: 0.647 µM
TGI [57]: 15.9 µM
